Experiments:
U937 cells = assay: Induction of macrophage differentiation in U937 cells; assay type: cell-based, human; conditions: 100 ng/ml PMA, 48 h
Protocol: (§1) U937 cells were collected and counted 16 hours after electroporation. 200,000 cells in 1 ml of media were added to each well of 24-well plates. Macrophage differentiation was stimulated by adding phorbol 12-myristate 13-acetate (PMA; 100 ng/ml). After 48 h with PMA., >80% of the monocytes had transformed from cells in suspension (monocytes) to adherent cells (macrophages). At 48 hours the media and any non-adherent cells were removed and fresh RPMI media with 10% FBS (1 ml per well) was added. The cells were left for 24 hours in fresh media to become quiescent.

[1] = tested on: apoptosis-specific eIF-5A; assay: Apoptosis-specific eIF-5A expression in U937 cells with PMA or LPS; assay type: cell-based, human
Protocol: as §1
72 hours after PMA addition to U937 cells, lipopolysaccharide (LPS; 100 ng/ml; from E. coli, serotype 0111), interferonγ (IFNγ; 100 Units/ml), or a combination of LPS and IFNγ were added to the wells. Samples were collected before stimulator addition (72h), and at various times after addition as outlined in FIG. 108. To collect samples for analysis of cytokine secretion, the media from each well was transferred to clean microcentrifuge tubes and cleared of any debris by centrifugation at 13000×g for 3 mins. The media was stored at −20° C. in 200-250 μl aliquots prior to analysis. […]
The protein concentration in the cell lysates was determined by bicinchoninic acid assays (BCA) with bovine serum albumin used as the standard. […]

[2] = tested on: lamina cribrosa cell line #506; assay type: cell-based, human; conditions: confluent LC cells, 48 hours; 50 μM camptothecin, 10 ng/ml TNF-α; Hoescht staining
Protocol: FIG. 83 is a graph showing percent apoptosis of lamina cribrosa cell line #506 in response to treatment with camptothecin and TNF-α. Lamina cribrosa cell line #506 cells were seeded at 40,000 cells per well onto an 8-well culture slide. Three days later the confluent LC cells were treated with either 10 ng/ml TNF-α, 50 μM camptothecin, or 10 ng/ml TNF-α plus 50 μM camptothecin. An equivalent volume of DMSO, a vehicle control for camptothecin, was added to the untreated control cells. The cells were stained with Hoescht 33258 48 hours after treatment and viewed by fluorescence microscopy using a UV filter. Cells with brightly stained condensed or fragmented nuclei were counted as apoptotic.
Apoptosis was induced in lamina cribrosa cells using a combination of 50 μM camptothecin (Sigma) and 10 ng/ml TNF-α (Leinco Technologies).
Since TNF-α is believed to play an important role during the glaucomatous process, the susceptibility of LC cells to the cytotoxic effects of TNF-α was examined. Confluent LC cells were exposed to either camptothecin, TNF-α, or a combination of camptothecin and TNF-α for 48 hours (FIG. 83).

[3] = tested on: apoptosis-specific eIF-5A; assay: Apoptosis-specific eIF-5A expression in LC cells during camptothecin or TNF-α plus camptothecin treatment; assay type: cell-based, human; conditions: LC cells #506; 50 μM camptothecin, 10 ng/ml TNF-α; 1, 4, 8, 24 hours
Protocol: Lamina cribrosa cell #506 cells were seeded at 40,000 cells per well onto a 24-well plate. Three days later the LC cells were treated with either 50 μM camptothecin or 10 ng/ml TNF-α plus 50 μM camptothecin and protein lysate was harvested 1, 4, 8, and 24 hours later. An equivalent volume of DMSO was added to control cells as a vehicle control and cell lysate was harvested 1 and 24 hours later. 5 μg of protein from each sample was separated by SDS-PAGE, transferred to a PVDF membrane, and Western blot with anti-apoptosis-specific eIF-5A antibody. The bound antibody was detected by chemiluminescence and exposed to x-ray film. The membrane was then stripped and re-blotted with anti-β-actin as an internal loading control.
Protein was isolated for Western blotting from lamina cribrosa cells growing on 24-well plates by washing the cells twice in PBS (8 g/L NaCl, 0.2 g/L KCl, 1.44 g/L Na2HPO4, and 0.24 g/L KH2PO4) and then adding 50 μl of lysis buffer [2% SDS, 50 mM Tris-HCl (pH 7.4)]. The cell lysate was collected in a microcentrifuge tube, boiled for 5 minutes and stored at −20° C. until ready for use. Protein concentrations were determined using the Bicinchoninic Acid Kit (BCA; Sigma). For Western blotting, 5 μg of total protein was separated on a 12 SDS-polyacrylamide gel. The separated proteins were transferred to a polyvinylidene difluoride membrane. […]

corpus luteum = assay: DNA laddering in rat corpus luteum after PGF-2α; assay type: in vivo; conditions: superovulated rat corpus lutea; 0, 1, or 24 hours after injection
Protocol: The degree of apoptosis was determined by DNA laddering. Genomic DNA was isolated from dispersed corpus lineal cells or from excised corpus luteum tissue using the QIAamp DNA Blood Kit (Qiagen) according to the manufacturer's instructions. Corpus luteum tissue was excised before the induction of apoptosis by treatment with PGF-2α, 1 hour and 24 hours after induction of apoptosis. The isolated DNA was end-labeled by incubating 500 ng of DNA with 0.2 μCi [α-^32P]dCTP, 1 mM Tris, 0.5 mM EDTA, 3 units of Klenow enzyme, and […] each of dATP, dGTP, and dTTP at room temperature for 30 minutes. Unincorporated nucleotides were removed by passing the sample through a 1 ml Sepadex G-50 column according to Sambrook et al. The samples were then resolved by Tris-acetate-EDTA (1.8%) gel electrophoresis. The gel was dried for 30 minutes at room temperature under vacuum and exposed to x-ray film at −80° C. for 24 hours.
In one experiment, the degree of apoptosis in superovulated rat corpus lutea was examined either 0, 1, or 24 hours after injection with PGF-2α. In the 0 hour control, the ovaries were removed without PGF-2α injection. […] In this figure, the top panel is an autoradiograph of the Northern blot probed with the ^32P-dCTP-labeled 3′-untranslated region of rat corpus luteum apoptosis-specific DHS cDNA. The lower panel is the ethidium bromide stained gel of total RNA. […]

[4] = tested on: apoptosis-specific eIF-5A and DHS; assay: Northern blot of rat corpus luteum RNA after PGF-2α; assay type: in vivo
Source text: […] of total RNA isolated from rat corpus luteum at various stages of apoptosis were separated on 1% denatured formaldehyde agarose gels and immobilized on nylon membranes. The full-length rat apoptosis-specific eIF-5A cDNA (SEQ ID NO:1) labeled with ^32P-dCTP using a random primer kit (Boehringer) was used to probe the membranes 7×10^7. Alternatively, full length rat DHS cDNA (SEQ ID NO:6) labeled with ^32P-dCTP using a random primer kit (Boehringer) was used to probe the membranes (7×10^7 cpm). The membranes were washed once with 1×SSC, 0.1% SDS at room temperature and three times with 0.2×SSC, 0.1% SDS at 65° C. The membranes were dried and exposed to X-ray film overnight at −70° C.

For `CCCCCCCCCCCCCC(=O)O[C@@H]1[C@@H](C)[C@@]2(O)[C@@H](C=C(CO)C[C@]3(O)C(=O)C(C)=C[C@@H]23)[C@@H]2C(C)(C)[C@]12OC(C)=O` [PMA, phorbol 12-myristate 13-acetate], the “monocytes transformed from cells in suspension to adherent cells (macrophages)” value (U937 cells) was over 80% and the “apoptosis-specific eIF-5A expression” value [1] was “upregulated”.
`CC[C@@]1(O)C(=O)OCc2c1cc1n(c2=O)Cc2cc3ccccc3nc2-1` [camptothecin] was tested, and the “cell death of LC cells” value [2] was “approximately 30%” and the “expression of apoptosis-specific eIF-5A protein” value [3] was “did not alter significantly”.
For `CCCCC[C@H](O)/C=C/[C@@H]1[C@@H](C/C=C\CCCC(=O)O)[C@@H](O)C[C@H]1O` [PGF-2α], the “laddering of low molecular weight DNA fragments” value (corpus luteum) was “discernible within 1 hour after induction of apoptosis and is pronounced by 24 hours”, the “expression of DHS” value [4] was “increased substantially within 1 hour of treatment” and the “expression of apoptosis-specific eIF-5A” value [4] was “significantly enhanced”.
